According to US11091428B2 (HAPLOGEN GMBH, priority 2016, dated 2021):

biological target: T1, PLA2G16 (Homo sapiens, UniProt P53816); assay: Enzyme activity assay for PLA2G16 (Red/Green BODIPY PC-A2 fluorescence); type: biochemical; settings: His-tagged PLA2G16, 4 min pre-incubation, 2 nM to 50 μM; read-out: IC50 values of the compounds determined in the enzyme activity assay for PLA2G16
T1 construct: Hexa-His (N); made in house; host or cells: E. coli BL21(DE3)
T1 sequence (P53816 1-162): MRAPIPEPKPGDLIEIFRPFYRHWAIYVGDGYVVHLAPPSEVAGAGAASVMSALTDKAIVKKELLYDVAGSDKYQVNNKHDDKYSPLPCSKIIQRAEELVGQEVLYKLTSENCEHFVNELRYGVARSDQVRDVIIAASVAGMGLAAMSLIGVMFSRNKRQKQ
Source text: A cDNA for PLA2G16(NM_007069) was custom-synthesized by Genscript (Piscataway, USA) and inserted into a pET-based bacterial expression vector [Moffatt, B. A. and Studier, F. W. (1986) J. Mol. Biol. 189, 113-130; Rosenberg, A. H., Lade, B. N., Chui, D., Lin, S., Dunn, J. J., and Studier, F. W. (1987) Gene 56, 125-135], enabling the expression of N-terminally Hexa-His-tagged PLA2G16. E. coli BL21(DE3) (Agilent) were transformed with pET-His-PLA2G16according to the manufacturer's instructions and plated on Carbenicillin-containing agar plates (final concentration: 100 μg/mL). A single clone was in occulated in 100 mL LB medium supplemented with 100 μg/mL Carbenicillin and the in occulated culture was grown at 37° C. overnight in a rotary shaker. On the next day, the bacterial culture was diluted in LB medium supplemented with 100 μg/mL Carbenicillin (30 mL overnight culture in 800 mL total culture volume). Bacteria were grown at 37° C. until the OD600 reached 0.6. Gene expression was induced by addition of 1 mM isopropyl-β-D-thiogalactopyranosid (IPTG) for 2 h at 18° C. Subsequently, bacteria were harvested by centrifugation (15 min; 10,000×g; 4° C.) and frozen at −80° C. The bacterial pellet was resuspended in Buffer A (50 mM Tris/HCl pH 7.5, 500 mM NaCl, 5% glycerol, 5 mM β-Mercaptoethanol and 1 mM PMSF) and lysed by addition of 1 mg/mL lysozyme (Sigma Aldrich) and 100 μg/mL DNasel-(Roche). The sample was incubated at 30° C. for 30 min to allow lysis to occur. Then, the lysate was cleared by centrifugation (15,000×g, 15 min, 4° C.) and incubated with 1.5 mL Ni-NTA agarose suspension (Qiagen) for 60 min at 4° C. The Ni-NTA agarose was washed with 10 mL Buffer A. Bound protein was eluted by applying a manual gradient of Buffer A supplemented with increasing concentrations of imidazole (Sigma Aldrich; 25/50/75/100/250 mM). Purified fractions were analyzed by SDS-PAGE followed by Coomassie staining to assess the purity.
Activity of the protein was assessed as follows: Red/Green BODIPY® PC-A2 (Invitrogen, 1 mM in DMSO) was mixed with equal volumes of 1,2-Dioleoyl-sn-glycero-3-phosphocholine (DOPC; Sigma Aldrich, 10 mM in Ethanol) and 1,2-Dioleoyl-sn-glycero-3-phospho-rac-(1-glycerol) (DOPG; Sigma Aldrich, 10 mM in Ethanol) and 0.5 volumes of Cholesterol (CHOL; Sigma Aldrich, 10 mM in Ethanol) and vortexed for 5 s. The mixture (Red/Green BODIPY® PC-A2/DOPC/DOPG/CHOL) was diluted 1:91.4 in activity assay buffer (50 mM Tris/HCl pH 8.5, 100 mM NaCl) using a small-orifice pipette tip under constant vortexing. In the following, this preparation will be referred to as the “substrate solution”.
In order to evaluate their inhibitory potential, compounds were dissolved at 10 mM concentration in DMSO and directly spotted into assay plates (Corning, Cat. No. 3576) using acoustic liquid transfer (Labcyte Echo 525). Each compound was spotted at increasing concentrations, ranging from 2 nM to 50 μM (concentration in the final assay volume). 50 μl of PLA2G16 enzyme solution (diluted in activity buffer, supplemented with 5 mM L-Glutathione; Sigma Aldrich) was pre-incubated with compounds for 4 min., followed by addition of 50 μl of substrate solution. Fluorescence was recorded immediately after substrate addition for a total time of 10 min. using a SpectraMax M5 multimode reader (Excitation wavelength: 480 nm, emission wavelength: 530 nm). The relative increase of fluorescence over time is referred to as the enzyme activity. Half-maximal inhibitory concentrations (IC50) were derived by non-linear regression analysis using the drc package in R (R Development. Core Team, 2005).

Row | IC50 [nM] | Structure (SMILES)
1 | 10000 to 50000 | COc1ccccc1N(C=O)C(C)C(=O)C(=O)N1CCc2ccc(Cl)cc2C1 (stereo not drawn) [FP 76, N-[4-(7-Chloro-1,2,3,4-tetrahydroisoquinolin-2-yl)-3,4-dioxobutan-2-yl]-N-(2-methoxy-phenyl)formamide]
2 | < 1000 | COc1cccc(N(C=O)C(C)C(=O)C(=O)NCc2cccc(Cl)c2)c1 (stereo not drawn) [FP 4, N-[(3-Chlorophenyl)methyl]-3-[N-(3-methoxyphenyl)formamido]-2-oxo butanamide]
3 | 10000 to 50000 | CC(C(=O)C(=O)NCC1CC1)N(CC1CCOCC1)S(C)(=O)=O (stereo not drawn) [FP 223, N-(Cyclopropylmethyl)-3-{N-[(oxan-4-yl)methyl]methanesulfonamido}-2-oxobutanamide]
4 | < 1000 | COc1ccccc1N(C=O)[C@@H](C)C(=O)C(=O)NCc1cccc(Cl)c1 (single isomer, unassigned) [FP 3]
5 | 10000 to 50000 | COc1ccccc1N1C(=O)CC[C@H]1C(=O)C(=O)NCC1CC1 [FP 140, N-(cyclopropylmethyl)-2-[(2S)-1-(2-methoxyphenyl)-5-oxopyrrolidin-2-yl]-2-oxoacetamide]
6 | 1000 to 10000 | CC(C)N(C=O)C(C)C(=O)C(=O)NC(C)(C)c1cccc(Cl)c1 (stereo not drawn) [FP 26, N-[2-(3-Chlorophenyl)propan-2-yl]-2-oxo-3-[N-(propan-2-yl)formamido]butanamide]
7 | < 1000 | COc1ccccc1N(C=O)C(C)C(=O)C(=O)NCc1ccccc1Cl (stereo not drawn) [FP 86, N-[(2-Chlorophenyl)methyl]-3-[N-(2-methoxyphenyl)formamido]-2-oxobutanamide]
8 | 1000 to 10000 | CC(C(=O)C(=O)NCC1CCCCC1)N(C)C(=O)CN(C)C (stereo not drawn) [FP 177, N-(Cyclohexylmethyl)-3-[2-(dimethylamino)-N-methylacetamido]-2-oxobutanamide]
9 | < 1000 | COc1ccccc1N(C=O)CC(=O)C(=O)NCc1cccc(Cl)c1 [FP 19, N-[(3-Chlorophenyl)methyl]-3-[N-(2-methoxyphenyl)formamido]-2-oxopropanamide]
10 | < 1000 | COc1ccccc1N(C=O)C(C)C(=O)C(=O)N(C)Cc1cccc(Cl)c1 (stereo not drawn) [FP 77, N-[(3-Chlorophenyl)methyl]-3-[N-(2-methoxyphenyl)formamido]-N-methyl-2-oxobutanamide]
11 | 1000 to 10000 | COc1ccccc1N(C=O)C(C(=O)C(=O)NCc1cccc(Cl)c1)c1ccccc1 (stereo not drawn) [FP 10, N-[(3-Chlorophenyl)methyl]-3-[N-(2-methoxyphenyl)formamido]-2-oxo-3-phenylpropanamide]
12 | < 1000 | COc1ccccc1N(C=O)C(C)C(=O)C(=O)NCc1ccccc1 (stereo not drawn) [FP 88, N-Benzyl-3-[N-(2-methoxyphenyl)formamido]-2-oxobutanamide]
13 | < 1000 | CC(C(=O)C(=O)NCc1ccccc1)N(C=O)C1CCCCC1 (stereo not drawn) [FP 113, N-Benzyl-3-(N-cyclohexylformamido)-2-oxobutanamide]
14 | 1000 to 10000 | COc1ccccc1N(C=O)C(C)C(=O)C(N)=O (stereo not drawn) [FP 14, 3-[N-(2-Methoxyphenyl)formamido]-2-oxobutanamide]
15 | 1000 to 10000 | COc1ccccc1N(C=O)C(C)(C)C(=O)C(=O)NCc1cccc(Cl)c1 [FP 9, N-[(3-Chlorophenyl)methyl]-3-[N-(2-methoxyphenyl)formamido]-3-methyl-2-oxobutanamide]
16 | < 1000 | CC(C(=O)C(=O)NCc1cccc(Cl)c1)N(C=O)Cc1ccccc1 (stereo not drawn) [FP 20, 3-(N-Benzylformamido)-N-[(3-chlorophenyl)methyl]-2-oxobutanamide]

Row | IC50 [nM] | Structure (SMILES)
17 | < 1000 | COc1ccccc1N(C=O)[C@H](C)C(=O)C(=O)NCc1cccc(Cl)c1 (single isomer, unassigned) [FP 2]
18 | < 1000 | COc1ccccc1N(C=O)C(C)C(=O)C(=O)NC(C)c1cccc(Cl)c1 (stereo not drawn) [FP 84, N-[1-(3-Chlorophenyl)ethyl]-3-[N-(2-methoxyphenyl)formamido]-2-oxobutanamide]
19 | < 1000 | CC(C(=O)C(=O)NCc1cccc(Cl)c1)N(C=O)C1CCCCC1 (stereo not drawn) [FP 17, N-[(3-Chlorophenyl)methyl]-3-(N-cyclohexylformamido)-2-oxobutanamide]
20 | < 1000 | CC(C(=O)C(=O)NCc1cccc(Cl)c1)N(C=O)c1ccccc1 (stereo not drawn) [FP 6, N-[(3-Chlorophenyl)methyl]-2-oxo-3-(N-phenylformamido)butanamide]
21 | < 1000 | O=C(NC1CC1)C(=O)C1CCC(=O)N1Cc1ccccc1Cl (stereo not drawn) [FP 260, 2-{1-[(2-Chlorophenyl)methyl]-5-oxopyrrolidin-2-yl}-N-cyclopropyl-2-oxoacetamide]
22 | < 1000 | CC(C)N(C=O)C(C)C(=O)C(=O)NCc1cccc(Cl)c1 (stereo not drawn) [FP 21, N-[(3-Chlorophenyl)methyl]-2-oxo-3-[N-(propan-2-yl)formamido]butanamide]
23 | < 1000 | CC(C(=O)C(=O)NCC1CC1)N(C=O)C1CCC(F)(F)CC1 (stereo not drawn) [FP 194, N-(Cyclopropylmethyl)-3-[N-(4,4-difluorocyclohexyl)formamido]-2-oxobutanamide]
24 | < 1000 | Cc1cc(C(=O)N(C)C(C)C(=O)C(=O)NCC2CCCCC2)no1 (stereo not drawn) [FP 147, N-(Cyclohexylmethyl)-3-[N-methyl-1-(5-methyl-1,2-oxazol-3-yl)formamido]-2-oxobutanamide]
25 | 1000 to 10000 | COc1ccccc1NC(=O)C(=O)[C@H](C)N(C=O)c1ccccc1OC [FP 82, (3S)—N-(2-Methoxyphenyl)-3-[N-(2-methoxyphenyl)formamido]-2-oxobutanamide]
26 | < 1000 | COc1ccccc1N(C=O)C(C)C(=O)C(=O)NCc1cccc(C)c1 (stereo not drawn) [FP 87, 3-[N-(2-Methoxyphenyl)formamido]-N-[(3-methylphenyl)methyl]-2-oxo butanamide]
27 | < 1000 | C[C@@H](O)CNC(=O)C(=O)C1CCC(=O)N1Cc1ccc(Cl)cc1 (stereo partly drawn) [FP 259, 2-{1-[(4-Chlorophenyl)methyl]-5-oxopyrrolidin-2-yl}-N-[(2R)-2-hydroxypropyl]-2-oxoacetamide]
28 | < 1000 | COc1ccc(N(C=O)C(C)C(=O)C(=O)NCc2cccc(Cl)c2)cc1 (stereo not drawn) [FP 5, N-[(3-Chlorophenyl)methyl]-3-[N-(4-methoxyphenyl)formamido]-2-oxobutanamide]
29 | < 1000 | COCC(=O)N(C)C(C)C(=O)C(=O)NCC1CCCCC1 (stereo not drawn) [FP 148, N-(Cyclohexylmethyl)-3-(2-methoxy-N-methylacetamido)-2-oxobutanamide]
30 | 10000 to 50000 | CC(C(=O)C(=O)NCC1CCCCC1)N1CCCCC1=O (stereo not drawn) [FP 186, N-(Cyclohexylmethyl)-2-oxo-3-(2-oxopiperidin-1-yl)butanamide]
31 | 1000 to 10000 | COc1ccccc1N1C(=O)CC[C@H]1C(=O)C(=O)NCc1cccc(Cl)c1 [FP 139, N-[(3-Chlorophenyl)methyl]-2-[(2S)-1-(2-methoxyphenyl)-5-oxopyrrolidin-2-yl]-2-oxoacetamide]
32 | < 1000 | COc1ccccc1N(C=O)C(C)C(=O)C(=O)NCC1CCOCC1 (stereo not drawn) [FP 103, 3-[N-(2-Methoxyphenyl)formamido]-m[(oxan-4-yl)methyl]-2-oxobutanamide]

Row | Structure (SMILES) | IC50 [nM]
33 | CC(=O)NCCCOCCCCOCCCNC(=O)C(=O)C1CCC(=O)N1Cc1ccc(Cl)cc1 (stereo not drawn) [FP 329, 2-{1-[(4-Chlorophenyl)methyl]-5-oxopyrrolidin-2-yl}-N-{3-[4-(3-acetamidopropoxy)butoxy]propyl}-2-oxoacetamide] | < 1000
